Experimental data: patent US20040102622A1, “Modulation of hepatocyte growth factor receptor expression” (Isis Pharmaceuticals Inc., priority 2002, published 2004)

system: human hepatocyte growth factor receptor mRNA

| Substance | inhibition of human hepatocyte growth factor receptor expression |
| --- | --- |
| ISIS 155107: 2′-MOE gapmer, phosphorothioate backbone, sequence tccgcggtgaagttgggaag (antisense TCCGCGGTGAAGTTGGGAAG; all phosphorothioate, sugars by position and methylation of C not given here; 2'-MOE gapmer) | at least 35% |
| ISIS 155126: 2′-MOE gapmer, phosphorothioate backbone, sequence ctgtgcatttcaatgtattc (antisense CTGTGCATTTCAATGTATTC; all phosphorothioate, sugars by position and methylation of C not given here; 2'-MOE gapmer) | at least 35% |
| ISIS 209542: 2′-MOE gapmer, phosphorothioate backbone, sequence cttgcttccactaaaaatga (antisense CTTGCTTCCACTAAAAATGA; all phosphorothioate, sugars by position and methylation of C not given here; 2'-MOE gapmer) | at least 35% |
| ISIS 155105: 2′-MOE gapmer, phosphorothioate backbone, sequence atcaaagtatttggaaagga (antisense ATCAAAGTATTTGGAAAGGA; all phosphorothioate, sugars by position and methylation of C not given here; 2'-MOE gapmer) | at least 35% |
| ISIS 209534: 2′-MOE gapmer, phosphorothioate backbone, sequence agcattacttcatataaggg (antisense AGCATTACTTCATATAAGGG; all phosphorothioate, sugars by position and methylation of C not given here; 2'-MOE gapmer) | at least 35% |
| ISIS 155121: 2′-MOE gapmer, phosphorothioate backbone, sequence tgaaaggactttggctccca (antisense TGAAAGGACTTTGGCTCCCA; all phosphorothioate, sugars by position and methylation of C not given here; 2'-MOE gapmer) | at least 35% |
| ISIS 155130: 2′-MOE gapmer, phosphorothioate backbone, sequence tctctgaactcaggtaaaac (antisense TCTCTGAACTCAGGTAAAAC; all phosphorothioate, sugars by position and methylation of C not given here; 2'-MOE gapmer) | at least 35% |
| ISIS 209539: 2′-MOE gapmer, phosphorothioate backbone, sequence gcttccccattgctgttagg (antisense GCTTCCCCATTGCTGTTAGG; all phosphorothioate, sugars by position and methylation of C not given here; 2'-MOE gapmer) | at least 35% |
| ISIS 155112: 2′-MOE gapmer, phosphorothioate backbone, sequence taggagtcttctcccttgca (antisense TAGGAGTCTTCTCCCTTGCA; all phosphorothioate, sugars by position and methylation of C not given here; 2'-MOE gapmer) | at least 35% |
| ISIS 155102: 2′-MOE gapmer, phosphorothioate backbone, sequence gagaggcattgactgcagga (antisense GAGAGGCATTGACTGCAGGA; all phosphorothioate, sugars by position and methylation of C not given here; 2'-MOE gapmer) | at least 35% |
| ISIS 155115: 2′-MOE gapmer, phosphorothioate backbone, sequence agttccttcctgcttcatgc (antisense AGTTCCTTCCTGCTTCATGC; all phosphorothioate, sugars by position and methylation of C not given here; 2'-MOE gapmer) | at least 35% |
| ISIS 209547: 2′-MOE gapmer, phosphorothioate backbone, sequence tcctgcttcaatttcccata (antisense TCCTGCTTCAATTTCCCATA; all phosphorothioate, sugars by position and methylation of C not given here; 2'-MOE gapmer) | at least 35% |
| ISIS 155109: 2′-MOE gapmer, phosphorothioate backbone, sequence agctcgctgttcaatttcag (antisense AGCTCGCTGTTCAATTTCAG; all phosphorothioate, sugars by position and methylation of C not given here; 2'-MOE gapmer) | at least 35% |
| ISIS 209530: 2′-MOE gapmer, phosphorothioate backbone, sequence ttacaggatccacataggag (antisense TTACAGGATCCACATAGGAG; all phosphorothioate, sugars by position and methylation of C not given here; 2'-MOE gapmer) | at least 35% |
| ISIS 155097: 2′-MOE gapmer, phosphorothioate backbone, sequence cctcggtcagaaattgggaa (antisense CCTCGGTCAGAAATTGGGAA; all phosphorothioate, sugars by position and methylation of C not given here; 2'-MOE gapmer) | at least 35% |
| ISIS 209537: 2′-MOE gapmer, phosphorothioate backbone, sequence agaggtttatctgccaaaac (antisense AGAGGTTTATCTGCCAAAAC; all phosphorothioate, sugars by position and methylation of C not given here; 2'-MOE gapmer) | at least 35% |
| ISIS 155120: 2′-MOE gapmer, phosphorothioate backbone, sequence gtgtcctattaaagcagtgc (antisense GTGTCCTATTAAAGCAGTGC; all phosphorothioate, sugars by position and methylation of C not given here; 2'-MOE gapmer) | at least 35% |
| ISIS 209527: 2′-MOE gapmer, phosphorothioate backbone, sequence cgcttcacagcctgatgaat (antisense CGCTTCACAGCCTGATGAAT; all phosphorothioate, sugars by position and methylation of C not given here; 2'-MOE gapmer) | at least 35% |
| ISIS 209524: 2′-MOE gapmer, phosphorothioate backbone, sequence ctcatgtagaatgacattct (antisense CTCATGTAGAATGACATTCT; all phosphorothioate, sugars by position and methylation of C not given here; 2'-MOE gapmer) | at least 35% |
